Reference: patent US9040713B2, “Methods of managing blood sugar levels and compositions related thereto” (EMORY UNIVERSITY, priority 2010, dated 2015)

What was measured:
p85α−/− MEF cells = assay: [3H] 2-deoxyglucose transport in p85α knockout MEF cells; format: cell-based, mouse; conditions: insulin 100 nM 15 min or compound 5 μM 30 min
Description: Insulin signaling in the cell lysates were tested by immunoblotting. (B) DDN stimulates glucose uptake. […] [3H]2-deoxyglucose was then added, and the cells were further incubated for 10 min. [3H]2-deoxyglucose uptake by adipocytes was measured by scintillation counting (*: P<0.05 **: P<0.01 vs control, Student's t-test, n=3). (C) DDN synergizes insulin's signaling. […] Cell lysates were then prepared for Western blot using specific antibodies as indicated. […] 3H-2-deoxyglucose was then added, and the cells were further incubated for 10 min. 3H-2-deoxyglucose uptake by adipocytes was measured by scintillation counting (*: P<0.05; **: P<0.01, Student's t-test, n=3). (E) IR is necessary for DDN to induce ERK phosphorylation. […] Cell lysates were analyzed by Western blot. […] The uptake of 3H-2-deoxyglucose was monitored by liquid scintillation counting (*: P<0.05; **: P<0.01 vs control, Student's t-test, n=3).
(A) 4524-E7 activates IR phosphorylation and its downstream signaling in 3T3-L1 adipocytes. […] The amount of [3H]2-deoxyglucose taken by adipocytes was measured. […] Results were normalized to DMSO-treated cells and expressed as mean±S.E.M. (*: P<0.05; **:P<0.01, Student's t-test, n=3). […] Cells lysates were collected and analyzed by Western blot. […] 2-deoxyglucose was monitored by liquid scintillation counter. Results were expressed as mean±S.E.M. (*: P<0.05; **:P<0.01, Student's t-test, n=3). […]

GST-IRTK = target: T1, GST-IRTK (Homo sapiens, UniProt P06213); assay: Partial proteolysis; format: binding; conditions: compound 50 μM or ATP-γ-S 5 μM; limited trypsin (or chymotrypsin) digestion
T1 construct: GST-tagged IRTK (GST-IRTK, a.a. 1011-1382); purchased Invitrogen
Description: 200 ng GST-IRTK was subjected to limited trypsin digestion in the presence or absence of 50 μM compound with 50 mM tris-HCL (pH8.2) and 20 mM CacCl2. The sample was separated on a SDS-polyacrylamide gel and stained by silver.
Several small molecules bind to the intracellular kinase domain of IR (IRTK) and provoke its activation. DDN might also interact with the IRTK to activate IR. To test this possibility, an UV-absorption spectra analysis was performed using recombinant IRTK. While the GST-tagged IRTK (GST-IRTK, a.a. 1011-1382) had no absorption from 200 nm to 800 nm, addition of DDN, but not its structural related analogue naptho[2,3-d]thiazole-4,9-dione-2-[(4-chlorophenyl)amino] […] Partial proteolysis analysis was also performed to confirm the DDN/IRTK interaction. Recombinant GST-tagged IRTK was incubated with either DMSO or DDN, followed by limited trypsin digestions. In DMSO treatment, GST-IRTK was digested into several smaller fragments of various molecular weights. […] Whereas a band of ˜37 kDa presented strongly in the ATP-γ-S incubated IRTK, a band of ˜30 kDa was found in the control samples but attenuated in the ATP-γ-S-treated sample.
To evaluate if 4524-E7 directly binds to the IR kinase domain, a partial proteolysis assay was performed with recombinant IRTK domain using trypsin or chymotrypsin, which was used before to characterize the interaction between IR and its small molecular ligand DAQ B1. Recombinant GST-tagged IRTK with either DMSO, 50 μM 4524-E7 or ATP-γ-S, were incubated and followed by limited trypsin or chymotrypsin digestion. Under DMSO treatment, GST-IRTK was quickly digested by both trypsin and chymotrypsin into several small fragments with various molecular weights (FIG. 10B). […] To test whether 4524-E7 selectively elevates IR kinase activities, an in vitro IR, IGFR, and EGFR kinase assays were performed using histone as the substrate.

T1 sequence (P06213 1011-1382): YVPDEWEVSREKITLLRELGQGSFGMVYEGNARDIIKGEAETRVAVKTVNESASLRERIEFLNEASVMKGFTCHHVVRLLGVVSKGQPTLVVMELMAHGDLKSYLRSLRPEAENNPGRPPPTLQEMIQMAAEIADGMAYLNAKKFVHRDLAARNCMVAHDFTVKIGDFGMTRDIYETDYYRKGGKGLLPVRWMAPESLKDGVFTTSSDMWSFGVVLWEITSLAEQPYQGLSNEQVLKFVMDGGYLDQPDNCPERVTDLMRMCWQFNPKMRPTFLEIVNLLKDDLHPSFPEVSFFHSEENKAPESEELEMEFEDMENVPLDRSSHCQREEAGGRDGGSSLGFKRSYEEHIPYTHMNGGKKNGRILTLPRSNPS

Compound	[3H]-2-deoxyglucose uptake (p85α−/− MEF cells)	protection of IRTK from proteolysis (GST-IRTK)
O=C1c2ccccc2C(=O)C2SC(Nc3ccc(Cl)cc3)=NC12 (stereo not shown) [4524-E7, 2-((4-chlorophenyl)amino)naphtho[2,3-d]thiazole-4,9(3aH,9aH)-dione]	neither insulin nor 4524-E7 was able to induce glucose uptake	more intact IRTK was observed
insulin: insulin, used as positive control	neither insulin nor 4524-E7 was able to induce glucose uptake	
CC(=O)Oc1ccc(OC(C)=O)c2c1C(=O)C(Cl)=C(Cl)C2=O [DDN, 5,8-diacetyloxy-2,3-dichloro-1,4-naphthoquinone]		protected IRTK against trypsin digestion
